Results published in the supplement of paper PMC10307832.

Tests used:
Assay in all cases: relative viability (nuclei count vs DMSO), 5 days (fraction); higher = more cells survive
[1] = compound: C1/C(=C\C2=CC=CS2)/C(=O)/C(=C/C3=CC=CS3)/C1 + CS(=O)(=O)CCNCc1ccc(-c2ccc3ncnc(Nc4ccc(OCc5cccc(F)c5)c(Cl)c4)c3c2)o1 [Lapatinib] (partner 2 µM)
In short: (§1)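 Relative viability equals treated-well nuclei counts divided by vehicle-well nuclei counts. Counts came from 4× images of lung cancer cell lines grown in 1536-well plates for 5 days after pin-tool dosing on the day after seeding. Dosing used one drug alone or a fixed anchor-drug dose plus five library-drug doses (not always all listed) in √10 steps, and values are medians of duplicate plates.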

[2] = compound: C1/C(=C\C2=CC=CS2)/C(=O)/C(=C/C3=CC=CS3)/C1 + NC(=O)Nc1cc(-c2cccc(F)c2)sc1C(=O)N[C@H]1CCCNC1 [AZD7762] (partner 0.2 µM)
In short: as §1

[3] = compound: C[C@]12O[C@H](C[C@]1(O)CO)n1c3ccccc3c3c4c(c5c6ccccc6n2c5c31)CNC4=O [Lestaurtinib] + CC(=O)Nc1cccc(-n2c(=O)n(C3CC3)c(=O)c3c(Nc4ccc(I)cc4F)n(C)c(=O)c(C)c32)c1 [Trametinib] (partner 0.02 µM)
In short: as §1

Lestaurtinib + Olaparib = compound: C[C@]12O[C@H](C[C@]1(O)CO)n1c3ccccc3c3c4c(c5c6ccccc6n2c5c31)CNC4=O [Lestaurtinib] + O=C(c1cc(Cc2n[nH]c(=O)c3ccccc23)ccc1F)N1CCN(C(=O)C2CC2)CC1 [Olaparib] (partner 8 µM)
In short: as §1

Cell Line	relative viability ([1]; first compound 0.2 µM)	relative viability ([1]; first compound 0.6325 µM)	relative viability ([1]; first compound 2 µM)	relative viability ([1]; first compound 6.325 µM)	relative viability ([1]; first compound 20 µM)	relative viability ([2]; first compound 0.2 µM)	relative viability ([2]; first compound 0.6325 µM)	relative viability ([2]; first compound 2 µM)	relative viability ([2]; first compound 6.325 µM)	relative viability ([2]; first compound 20 µM)	relative viability ([3]; first compound 0.005 µM)	relative viability ([3]; first compound 0.01581 µM)	relative viability ([3]; first compound 0.05 µM)	relative viability ([3]; first compound 0.1581 µM)	relative viability ([3]; first compound 0.5 µM)	relative viability (Lestaurtinib + Olaparib; first compound 0.005 µM)	relative viability (Lestaurtinib + Olaparib; first compound 0.01581 µM)	relative viability (Lestaurtinib + Olaparib; first compound 0.05 µM)	relative viability (Lestaurtinib + Olaparib; first compound 0.1581 µM)	relative viability (Lestaurtinib + Olaparib; first compound 0.5 µM)
HCC-78	0.759	0.828	1.1	0.562	0.814	0.649	0.729	0.76	0.68	0.658	0.832	0.807	0.578	0.522	0.284	0.843	0.835	0.765	0.566	0.385
HCC-366	1.14	0.926	1.07	0.84	0.931	0.297	0.347	0.215	0.241	0.145	0.365	0.489	0.399	0.342	0.149	0.375	0.338	0.35	0.455	0.254
HCC-827	0.21	0.177	0.205	0.191	0.204	0.21	0.192	0.245	0.226	0.245	0.536	0.527	0.573	0.456	0.458	0.585	0.654	0.665	0.508	0.484
IA-LM	1.08	0.749	0.779	0.757	0.67											0.835	0.944	0.991	0.819	0.774
LCLC-103H						0.772	0.742	0.9	0.613	0.783	0.717	0.741	0.609	0.592	0.678	0.872	0.845	0.719	0.655	0.529
NCI-H441						1.35	1.22	1.29	1.01	1.13	0.458	0.441	0.346	0.389	0.34	0.557	0.513	0.495	0.48	0.379
NCI-H520	0.912	0.896	0.786	0.817	0.763						0.715	0.676	0.534	0.42	0.211	0.383	0.421	0.315	0.319	0.254
NCI-H522						0.936	0.809	0.822	0.9	0.94	0.786	0.786	0.752	0.701	0.537	0.741	0.617	0.665	0.617	0.429
NCI-H661	0.465	0.49	0.507	0.475	0.516						0.609	0.633	0.508	0.607	0.321	0.813	0.754	0.684	0.735	0.419
NCI-H1299	1.04	0.951	0.909	0.939	0.995											0.994	1.06	0.814	0.89	0.721
NCI-H1563	0.996	0.903	0.97	0.953	0.955															
NCI-H1648						0.778	0.622	0.571	0.601	0.511		0.728		0.458	0.367		0.979		1.08	0.478
NCI-H1650	0.654	0.735	0.961	0.748	0.803						0.516	0.66	0.656	0.687	0.335	0.596	0.79	0.787	1.22	0.631
NCI-H1703	1.21	1.21	1.18	1.1	1.11	0.121	0.176	0.148	0.119	0.128						0.437	0.285	0.145	0.212	0.123
NCI-H2009	0.882	0.872	1.02	0.868	0.917						0.28	0.233	0.206	0.235	0.185	0.589	0.754	0.577	0.843	0.473
NCI-H2023	0.877	0.87	0.889	0.734	0.67						0.557	0.712	0.599	0.354	0.132	0.519	0.493	0.578	0.364	0.18
NCI-H2228	1.22	1.12	1.14	0.939	1						0.589	0.575	0.452	0.322	0.156	0.644	0.455	0.318	0.432	0.137
NCI-H2342						0.484	0.537	0.718	0.483	0.363	0.836	0.817	0.841	0.849	0.971	0.44	0.432	0.439	0.43	0.501
SK-LU-1	0.91	0.787	0.846	0.721	0.922						0.452	0.476	0.415	0.384	0.318	0.431	0.397	0.382	0.362	0.218
SK-MES-1	0.498	0.45	0.486	0.322	0.395						0.535	0.515	0.495	0.415	0.208	0.782	0.676	0.448	0.33	0.175
SW 900						0.74	0.665	0.628	0.495	0.602	0.959	0.86	0.691	1.16	0.876	0.92	1.12	0.958	1.34	1.07
SW 1573	1.07	1.15	1.17	1.09	1.03						0.712	0.672	0.491	0.367	0.144	0.554	0.567	0.451	0.383	0.145
